# Measurements taken from patent US20260027116A1, “Methods of Treating Chronic Graft-Versus-Host Disease Following Allogeneic Hematopoietic Stem Cell Transplantation” (Kadmon Corporation, LLC, priority 2022, published 2026).
# System: lung function
# Test: Example 1: percent predicted HGB corrected DLco change from baseline
# Assay type: in vivo, human
# Details: mean (SD)
# From the text: Change From Baseline in Percent Predicted Hemoglobin (HGB) Corrected Diffusing Capacity of Lung for Carbon Monoxide (DLco) at Each Specified Time Points. DLco is a measurement of the ability of the lungs to transfer gases from the air to the blood. Change from baseline in diffusing capacity of the lung for carbon monoxide (percent predicted hemoglobin level corrected) was reported for this measure. Baseline value was defined as valid and last non-missing value obtained within 28 days prior to participant receiving first study medication. EOT visit was performed within 3 days after the participant's last dose of study drug. […] Analysis was performed on mITT population. Here, ‘number analyzed’=participants with available data for each specified category. Here, ‘O’ in the number analyzed field signifies that none of the participants were available for the analysis at the specified time points.
smiles,measurement,setting,value
"CC(C)NC(=O)COc1cccc(-c2nc(Nc3ccc4[nH]ncc4c3)c3ccccc3n2)c1 [Belumosudil, 2-{3-[4-(1H-indazol-5-ylamino)-2-quinazolinyl]phenoxy}-N-(propan-2-yl) acetamide]",Change From Baseline in Percent Predicted Hemoglobin (HGB) Corrected Diffusing Capacity of Lung for Carbon Monoxide (DLco),"Cohort 2: 200 mg BID, Cycle 14, Day 1",0.358 (—) Percent Predicted HGB Corrected DLco
same,Change From Baseline in Percent Predicted Hemoglobin (HGB) Corrected Diffusing Capacity of Lung for Carbon Monoxide (DLco),"Cohort 2: 200 mg BID, Cycle 15, Day 1",1.125 (5.927) Percent Predicted HGB Corrected DLco
same,Change From Baseline in Percent Predicted Hemoglobin (HGB) Corrected Diffusing Capacity of Lung for Carbon Monoxide (DLco),"Cohort 2: 200 mg BID, Cycle 16, Day 1",−6.618 (15.443) Percent Predicted HGB Corrected DLco
same,Change From Baseline in Percent Predicted Hemoglobin (HGB) Corrected Diffusing Capacity of Lung for Carbon Monoxide (DLco),"Cohort 2: 200 mg BID, Cycle 17, Day 1",8.458 (6.229) Percent Predicted HGB Corrected DLco
same,Change From Baseline in Percent Predicted Hemoglobin (HGB) Corrected Diffusing Capacity of Lung for Carbon Monoxide (DLco),"Cohort 2: 200 mg BID, Cycle 18, Day 1",15.543 (11.753) Percent Predicted HGB Corrected DLco
same,Change From Baseline in Percent Predicted Hemoglobin (HGB) Corrected Diffusing Capacity of Lung for Carbon Monoxide (DLco),"Cohort 2: 200 mg BID, Cycle 19, Day 1",1.824 (8.539) Percent Predicted HGB Corrected DLco
same,Change From Baseline in Percent Predicted Hemoglobin (HGB) Corrected Diffusing Capacity of Lung for Carbon Monoxide (DLco),"Cohort 2: 200 mg BID, Cycle 20, Day 1",−14.692 (—) Percent Predicted HGB Corrected DLco
same,Change From Baseline in Percent Predicted Hemoglobin (HGB) Corrected Diffusing Capacity of Lung for Carbon Monoxide (DLco),"Cohort 2: 200 mg BID, Cycle 21, Day 1",−10.661 (—) Percent Predicted HGB Corrected DLco
same,Change From Baseline in Percent Predicted Hemoglobin (HGB) Corrected Diffusing Capacity of Lung for Carbon Monoxide (DLco),"Cohort 2: 200 mg BID, Cycle 22, Day 1",3.347 (3.560) Percent Predicted HGB Corrected DLco
same,Change From Baseline in Percent Predicted Hemoglobin (HGB) Corrected Diffusing Capacity of Lung for Carbon Monoxide (DLco),"Cohort 2: 200 mg BID, Cycle 23, Day 1",−15.184 (20.181) Percent Predicted HGB Corrected DLco
same,Change From Baseline in Percent Predicted Hemoglobin (HGB) Corrected Diffusing Capacity of Lung for Carbon Monoxide (DLco),"Cohort 2: 200 mg BID, Cycle 24, Day 1",−18.095 (—) Percent Predicted HGB Corrected DLco
same,Change From Baseline in Percent Predicted Hemoglobin (HGB) Corrected Diffusing Capacity of Lung for Carbon Monoxide (DLco),"Cohort 2: 200 mg BID, Cycle 25, Day 1",6.289 (2.469) Percent Predicted HGB Corrected DLco
same,Change From Baseline in Percent Predicted Hemoglobin (HGB) Corrected Diffusing Capacity of Lung for Carbon Monoxide (DLco),"Cohort 2: 200 mg BID, Cycle 27, Day 1",−9.914 (15.387) Percent Predicted HGB Corrected DLco
same,Change From Baseline in Percent Predicted Hemoglobin (HGB) Corrected Diffusing Capacity of Lung for Carbon Monoxide (DLco),"Cohort 2: 200 mg BID, Cycle 29, Day 1",−18.814 (24.960) Percent Predicted HGB Corrected DLco
same,Change From Baseline in Percent Predicted Hemoglobin (HGB) Corrected Diffusing Capacity of Lung for Carbon Monoxide (DLco),"Cohort 2: 200 mg BID, Cycle 31, Day 1",−0.800 (17.528) Percent Predicted HGB Corrected DLco
same,Change From Baseline in Percent Predicted Hemoglobin (HGB) Corrected Diffusing Capacity of Lung for Carbon Monoxide (DLco),"Cohort 2: 200 mg BID, Cycle 33, Day 1",−5.962 (10.550) Percent Predicted HGB Corrected DLco
same,Change From Baseline in Percent Predicted Hemoglobin (HGB) Corrected Diffusing Capacity of Lung for Carbon Monoxide (DLco),"Cohort 2: 200 mg BID, Cycle 35, Day 1",−0.426 (6.677) Percent Predicted HGB Corrected DLco
same,Change From Baseline in Percent Predicted Hemoglobin (HGB) Corrected Diffusing Capacity of Lung for Carbon Monoxide (DLco),"Cohort 2: 200 mg BID, Cycle 37, Day 1",−19.228 (—) Percent Predicted HGB Corrected DLco
same,Change From Baseline in Percent Predicted Hemoglobin (HGB) Corrected Diffusing Capacity of Lung for Carbon Monoxide (DLco),"Cohort 2: 200 mg BID, Cycle 39, Day 1",−6.813 (12.810) Percent Predicted HGB Corrected DLco
same,Change From Baseline in Percent Predicted Hemoglobin (HGB) Corrected Diffusing Capacity of Lung for Carbon Monoxide (DLco),"Cohort 2: 200 mg BID, Cycle 43, Day 1",8.775 (—) Percent Predicted HGB Corrected DLco
same,Change From Baseline in Percent Predicted Hemoglobin (HGB) Corrected Diffusing Capacity of Lung for Carbon Monoxide (DLco),"Cohort 2: 200 mg BID, EOT",0.985 (5.919) Percent Predicted HGB Corrected DLco
same,Change From Baseline in Percent Predicted Hemoglobin (HGB) Corrected Diffusing Capacity of Lung for Carbon Monoxide (DLco),"Cohort 3: 400 mg QD, Cycle 2, Day 1",−5.243 (9.830) Percent Predicted HGB Corrected DLco
same,Change From Baseline in Percent Predicted Hemoglobin (HGB) Corrected Diffusing Capacity of Lung for Carbon Monoxide (DLco),"Cohort 3: 400 mg QD, Cycle 3, Day 1",−3.928 (9.492) Percent Predicted HGB Corrected DLco
same,Change From Baseline in Percent Predicted Hemoglobin (HGB) Corrected Diffusing Capacity of Lung for Carbon Monoxide (DLco),"Cohort 3: 400 mg QD, Cycle 4, Day 1",0.278 (9.683) Percent Predicted HGB Corrected DLco
same,Change From Baseline in Percent Predicted Hemoglobin (HGB) Corrected Diffusing Capacity of Lung for Carbon Monoxide (DLco),"Cohort 3: 400 mg QD, Cycle 5, Day 1",−4.111 (9.138) Percent Predicted HGB Corrected DLco
same,Change From Baseline in Percent Predicted Hemoglobin (HGB) Corrected Diffusing Capacity of Lung for Carbon Monoxide (DLco),"Cohort 3: 400 mg QD, Cycle 6, Day 1",−3.143 (10.385) Percent Predicted HGB Corrected DLco
same,Change From Baseline in Percent Predicted Hemoglobin (HGB) Corrected Diffusing Capacity of Lung for Carbon Monoxide (DLco),"Cohort 3: 400 mg QD, Cycle 7, Day 1",−4.275 (11.464) Percent Predicted HGB Corrected DLco
same,Change From Baseline in Percent Predicted Hemoglobin (HGB) Corrected Diffusing Capacity of Lung for Carbon Monoxide (DLco),"Cohort 3: 400 mg QD, Cycle 8, Day 1",−3.787 (11.983) Percent Predicted HGB Corrected DLco
same,Change From Baseline in Percent Predicted Hemoglobin (HGB) Corrected Diffusing Capacity of Lung for Carbon Monoxide (DLco),"Cohort 3: 400 mg QD, Cycle 9, Day 1",−2.540 (11.897) Percent Predicted HGB Corrected DLco
same,Change From Baseline in Percent Predicted Hemoglobin (HGB) Corrected Diffusing Capacity of Lung for Carbon Monoxide (DLco),"Cohort 3: 400 mg QD, Cycle 10, Day 1",1.328 (8.887) Percent Predicted HGB Corrected DLco
same,Change From Baseline in Percent Predicted Hemoglobin (HGB) Corrected Diffusing Capacity of Lung for Carbon Monoxide (DLco),"Cohort 3: 400 mg QD, Cycle 11, Day 1",−2.720 (10.920) Percent Predicted HGB Corrected DLco
same,Change From Baseline in Percent Predicted Hemoglobin (HGB) Corrected Diffusing Capacity of Lung for Carbon Monoxide (DLco),"Cohort 3: 400 mg QD, Cycle 12, Day 1",−1.378 (6.364) Percent Predicted HGB Corrected DLco
same,Change From Baseline in Percent Predicted Hemoglobin (HGB) Corrected Diffusing Capacity of Lung for Carbon Monoxide (DLco),"Cohort 3: 400 mg QD, Cycle 13, Day 1",2.091 (13.290) Percent Predicted HGB Corrected DLco
same,Change From Baseline in Percent Predicted Hemoglobin (HGB) Corrected Diffusing Capacity of Lung for Carbon Monoxide (DLco),"Cohort 3: 400 mg QD, Cycle 14, Day 1",0.309 (11.651) Percent Predicted HGB Corrected DLco
same,Change From Baseline in Percent Predicted Hemoglobin (HGB) Corrected Diffusing Capacity of Lung for Carbon Monoxide (DLco),"Cohort 3: 400 mg QD, Cycle 15, Day 1",−5.309 (11.514) Percent Predicted HGB Corrected DLco
same,Change From Baseline in Percent Predicted Hemoglobin (HGB) Corrected Diffusing Capacity of Lung for Carbon Monoxide (DLco),"Cohort 3: 400 mg QD, Cycle 16, Day 1",−6.840 (15.053) Percent Predicted HGB Corrected DLco
same,Change From Baseline in Percent Predicted Hemoglobin (HGB) Corrected Diffusing Capacity of Lung for Carbon Monoxide (DLco),"Cohort 3: 400 mg QD, Cycle 17, Day 1",−10.865 (13.346) Percent Predicted HGB Corrected DLco
same,Change From Baseline in Percent Predicted Hemoglobin (HGB) Corrected Diffusing Capacity of Lung for Carbon Monoxide (DLco),"Cohort 3: 400 mg QD, Cycle 18, Day 1",−3.174 (3.106) Percent Predicted HGB Corrected DLco
same,Change From Baseline in Percent Predicted Hemoglobin (HGB) Corrected Diffusing Capacity of Lung for Carbon Monoxide (DLco),"Cohort 3: 400 mg QD, Cycle 19, Day 1",−2.020 (2.436) Percent Predicted HGB Corrected DLco
same,Change From Baseline in Percent Predicted Hemoglobin (HGB) Corrected Diffusing Capacity of Lung for Carbon Monoxide (DLco),"Cohort 3: 400 mg QD, Cycle 20, Day 1",−13.517 (5.936) Percent Predicted HGB Corrected DLco
same,Change From Baseline in Percent Predicted Hemoglobin (HGB) Corrected Diffusing Capacity of Lung for Carbon Monoxide (DLco),"Cohort 3: 400 mg QD, Cycle 21, Day 1",−12.354 (12.800) Percent Predicted HGB Corrected DLco
same,Change From Baseline in Percent Predicted Hemoglobin (HGB) Corrected Diffusing Capacity of Lung for Carbon Monoxide (DLco),"Cohort 3: 400 mg QD, Cycle 22, Day 1",−17.222 (16.947) Percent Predicted HGB Corrected DLco
same,Change From Baseline in Percent Predicted Hemoglobin (HGB) Corrected Diffusing Capacity of Lung for Carbon Monoxide (DLco),"Cohort 3: 400 mg QD, Cycle 23, Day 1",−2.219 (10.614) Percent Predicted HGB Corrected DLco
same,Change From Baseline in Percent Predicted Hemoglobin (HGB) Corrected Diffusing Capacity of Lung for Carbon Monoxide (DLco),"Cohort 3: 400 mg QD, Cycle 24, Day 1",−11.430 (—) Percent Predicted HGB Corrected DLco
same,Change From Baseline in Percent Predicted Hemoglobin (HGB) Corrected Diffusing Capacity of Lung for Carbon Monoxide (DLco),"Cohort 3: 400 mg QD, Cycle 25, Day 1",−13.392 (—) Percent Predicted HGB Corrected DLco
same,Change From Baseline in Percent Predicted Hemoglobin (HGB) Corrected Diffusing Capacity of Lung for Carbon Monoxide (DLco),"Cohort 3: 400 mg QD, Cycle 27, Day 1",−11.154 (—) Percent Predicted HGB Corrected DLco
same,Change From Baseline in Percent Predicted Hemoglobin (HGB) Corrected Diffusing Capacity of Lung for Carbon Monoxide (DLco),"Cohort 3: 400 mg QD, Cycle 29, Day 1",8.613 (—) Percent Predicted HGB Corrected DLco
same,Change From Baseline in Percent Predicted Hemoglobin (HGB) Corrected Diffusing Capacity of Lung for Carbon Monoxide (DLco),"Cohort 3: 400 mg QD, Cycle 31, Day 1",10.833 (—) Percent Predicted HGB Corrected DLco
same,Change From Baseline in Percent Predicted Hemoglobin (HGB) Corrected Diffusing Capacity of Lung for Carbon Monoxide (DLco),"Cohort 3: 400 mg QD, Cycle 35, Day 1",5.088 (—) Percent Predicted HGB Corrected DLco
same,Change From Baseline in Percent Predicted Hemoglobin (HGB) Corrected Diffusing Capacity of Lung for Carbon Monoxide (DLco),"Cohort 3: 400 mg QD, Cycle 36, Day 1",10.372 (—) Percent Predicted HGB Corrected DLco
same,Change From Baseline in Percent Predicted Hemoglobin (HGB) Corrected Diffusing Capacity of Lung for Carbon Monoxide (DLco),"Cohort 3: 400 mg QD, Cycle 39, Day 1",5.902 (—) Percent Predicted HGB Corrected DLco
same,Change From Baseline in Percent Predicted Hemoglobin (HGB) Corrected Diffusing Capacity of Lung for Carbon Monoxide (DLco),"Cohort 3: 400 mg QD, EOT",−10.371 (14.208) Percent Predicted HGB Corrected DLco
